Measurements published in patent EP0373216A1, “CEPHALOSPORIN COMPOUNDS OR THEIR SALTS, PROCESS FOR THEIR PREPARATION, AND PARMACEUTICAL COMPOSITIONS” (TEIJIN LIMITED, priority 1987, dated 1988).
In brackets after ≈: the same amount, converted by molar mass.

What was measured:
Test in all cases: In vitro antibacterial activity, agar disc dilution method
Type in all cases: cell-based
M. euteus ATCC 9341 = settings: M. euteus ATCC 9341; Mueller Hinton agar, 10^6/ml, 37°C for 16 hours; read-out: minimum growth inhibitory concentration (MIC)
Method: (§1) An in vitro antibacterial activity was measured by an agar disc dilution method.
(§2) Varied test bacteria were cultivated overnight in triptophane-soybroth. A Mueller Hinton agar containing the compound of this invention in varied concentrations was streaked with one platinum loopful of each of the bacteria (number of living cells 10^6/ml).

E. coli K12C600 = settings: Escherichia coli; E. coli K12C600; Mueller Hinton agar, 10^6/ml, 37°C for 16 hours; read-out: minimum growth inhibitory concentration (MIC)
Method: as §1, §2

S. aureus Terajima = settings: Staphylococcus aureus; S. aureus Terajima; Mueller Hinton agar, 10^6/ml, 37°C for 16 hours; read-out: minimum growth inhibitory concentration (MIC)
Method: as §1, §2

E. cloacae 963 = settings: Enterobacter cloacae; E. cloacae 963; Mueller Hinton agar, 10^6/ml, 37°C for 16 hours; read-out: minimum growth inhibitory concentration (MIC)
Method: as §1, §2

S. pyogenes Cook = settings: Streptococcus pyogenes; S. pyogenes Cook; Mueller Hinton agar, 10^6/ml, 37°C for 16 hours; read-out: minimum growth inhibitory concentration (MIC)
Method: as §1, §2

P. vulgalis OX-19 = settings: P. vulgalis OX-19; Mueller Hinton agar, 10^6/ml, 37°C for 16 hours; read-out: minimum growth inhibitory concentration (MIC)
Method: as §1, §2

S. marcescens I AM 1184 = settings: Serratia marcescens, IAM1184; S. marcescens I AM 1184; Mueller Hinton agar, 10^6/ml, 37°C for 16 hours; read-out: minimum growth inhibitory concentration (MIC)
Method: as §1, §2

S. typhic 901 = settings: Mueller Hinton agar, 10^6/ml, 37°C for 16 hours, read-out: minimum growth inhibitory concentration (MIC)
Method: as §1, §2

B. subtilis ATCC 6633 = settings: Bacillus subtilis, ATCC6633; B. subtilis ATCC 6633; Mueller Hinton agar, 10^6/ml, 37°C for 16 hours; read-out: minimum growth inhibitory concentration (MIC)
Method: as §1, §2

P. rettgeric IFO3850 = settings: P. rettgeric IFO3850; Mueller Hinton agar, 10^6/ml, 37°C for 16 hours; read-out: minimum growth inhibitory concentration (MIC)
Method: as §1, §2

K. pneumoniae PC I 602 = settings: Klebsiella pneumoniae, PCI602; K. pneumoniae PC I 602; Mueller Hinton agar, 10^6/ml, 37°C for 16 hours; read-out: minimum growth inhibitory concentration (MIC)
Method: as §1, §2

P. morganii IFO 3445 = settings: Morganella morganii, IFO3445; P. morganii IFO 3445; Mueller Hinton agar, 10^6/ml, 37°C for 16 hours; read-out: minimum growth inhibitory concentration (MIC)
Method: as §1, §2

S. enteritidis G14 = settings: Salmonella enterica; S. enteritidis G14; Mueller Hinton agar, 10^6/ml, 37°C for 16 hours; read-out: minimum growth inhibitory concentration (MIC)
Method: as §1, §2

P. aeruginosa NCTC 1049 = settings: Pseudomonas aeruginosa, NCTC1049; P. aeruginosa NCTC 1049; Mueller Hinton agar, 10^6/ml, 37°C for 16 hours; read-out: minimum growth inhibitory concentration (MIC)
Method: as §1, §2

Structure (SMILES) | MIC (M. euteus ATCC 9341) [µg/mL] | MIC (E. coli K12C600) [µg/mL] | MIC (S. aureus Terajima) [µg/mL] | MIC (E. cloacae 963) [µg/mL] | MIC (S. pyogenes Cook) [µg/mL] | MIC (P. vulgalis OX-19) [µg/mL] | MIC (S. marcescens I AM 1184) [µg/mL] | MIC (S. typhic 901) [µg/mL] | MIC (B. subtilis ATCC 6633) [µg/mL] | MIC (P. rettgeric IFO3850) [µg/mL] | MIC (K. pneumoniae PC I 602) [µg/mL] | MIC (P. morganii IFO 3445) [µg/mL] | MIC (S. enteritidis G14) [µg/mL] | MIC (P. aeruginosa NCTC 1049) [µg/mL]
Nc1nc(/C(=N/Oc2ccc(-c3ccccc3)cc2)C(=O)N[C@@H]2C(=O)N3C(C(=O)[O-])=C(C[n+]4ccc5cc(O)c(O)cc5c4)CS[C@H]23)cs1 [Compound IV, (6R,7R)-7-[(Z)-2-(2-amino-1,3-thiazol-4-yl)-2-(p-phenylphenoxy)iminoacetamide]-3-(6,7-dihydroxy-2-isoquinolinium)methyl-3-cephem-4-carboxylate] | 0.8 (≈ 1.15 µM) | 0.02 (≈ 0.0288 µM) | 1.6 (≈ 2.3 µM) | < 0.01 | 0.4 (≈ 0.576 µM) | < 0.01 | < 0.01 | < 0.01 | 1.6 (≈ 2.3 µM) | < 0.01 | 0.02 (≈ 0.0288 µM) | < 0.01 | 0.02 (≈ 0.0288 µM) | 0.8 (≈ 1.15 µM)
CC(=O)Oc1cc2cc[n+](CC3=C(C(=O)[O-])N4C(=O)[C@@H](NC(=O)/C(=N\Oc5ccccc5)c5csc(N)n5)[C@H]4SC3)cc2cc1OC(C)=O [Compound IX, (6R,7R)-7-[(Z)-2-(2-amino-1,3-thiazol-4-yl)-2-phenoxyiminoacetamide]-3-(6,7-diacetoxy-2-isoquinolinium)methyl-3-cephem-4-carboxylate] | 1.6 (≈ 2.28 µM) | 0.01 (≈ 0.0142 µM) | 1.6 (≈ 2.28 µM) | 0.02 (≈ 0.0285 µM) | 0.4 (≈ 0.569 µM) | < 0.01 | < 0.01 | < 0.01 | 0.8 (≈ 1.14 µM) | < 0.01 | < 0.01 | < 0.01 | 0.02 (≈ 0.0285 µM) | 0.1 (≈ 0.142 µM)
Nc1nc(/C(=N/Oc2ccccc2)C(=O)N[C@@H]2C(=O)N3C(C(=O)[O-])=C(C[n+]4cc(C(=O)O)c5cc(O)c(O)cc5c4)CS[C@H]23)cs1 [Compound VI, (6R,7R)-7-[(Z)-2-(2-amino-1,3-thiazol-4-yl)-2-phenoxyiminoacetamide]-3-(4-carboxy-6,7-dihydroxy-2-isoquinolinium)methyl-3-cephem-4-carboxylate] | 0.8 (≈ 1.21 µM) | 0.02 (≈ 0.0302 µM) | 3.1 (≈ 4.68 µM) | 0.05 (≈ 0.0755 µM) | 0.8 (≈ 1.21 µM) | < 0.01 | < 0.01 | < 0.01 | 1.6 (≈ 2.41 µM) | 0.02 (≈ 0.0302 µM) | 0.02 (≈ 0.0302 µM) | 0.02 (≈ 0.0302 µM) | < 0.01 | 3.1 (≈ 4.68 µM)
Nc1nc(/C(=N/Oc2ccccc2)C(=O)N[C@@H]2C(=O)N3C(C(=O)[O-])=C(C[n+]4cc(C(=O)O)c5cc(O)c(O)cc5c4Cl)CS[C@H]23)cs1 [Compound VII, (6R,7R)-7-[(Z)-2-(2-amino-1,3-thiazol-4-yl)-2-phenoxyiminoacetamide]-3-(l-chloro-4-carboxy-6,7-dihydroxy-2-isoquinolinium)methyl-3-cephem-4-carboxylate] | 0.8 (≈ 1.15 µM) | 0.03 (≈ 0.043 µM) | 3.1 (≈ 4.45 µM) | 0.1 (≈ 0.143 µM) | 0.4 (≈ 0.574 µM) | 0.02 (≈ 0.0287 µM) | 0.03 (≈ 0.043 µM) | – | 1.6 (≈ 2.3 µM) | 0.03 (≈ 0.043 µM) | 0.03 (≈ 0.043 µM) | 0.03 (≈ 0.043 µM) | 0.02 (≈ 0.0287 µM) | 1.6 (≈ 2.3 µM)
Nc1nc(/C(=N/Oc2cccc(C(=O)O)c2)C(=O)N[C@@H]2C(=O)N3C(C(=O)[O-])=C(C[n+]4ccc5cc(O)c(O)cc5c4)CS[C@H]23)cs1 [Compound VIII] | 1.6 (≈ 2.41 µM) | 0.05 (≈ 0.0755 µM) | 3.1 (≈ 4.68 µM) | 0.1 (≈ 0.151 µM) | 0.8 (≈ 1.21 µM) | 0.02 (≈ 0.0302 µM) | 0.1 (≈ 0.151 µM) | 0.03 (≈ 0.0453 µM) | 0.3 (≈ 0.453 µM) | 0.02 (≈ 0.0302 µM) | 0.03 (≈ 0.0453 µM) | 0.03 (≈ 0.0453 µM) | 0.03 (≈ 0.0453 µM) | 0.2 (≈ 0.302 µM)
Nc1nc(/C(=N/Oc2ccc(CC(=O)O)cc2)C(=O)N[C@@H]2C(=O)N3C(C(=O)[O-])=C(C[n+]4ccc5cc(O)c(O)cc5c4)CS[C@H]23)cs1 [Compound V] | 1.6 (≈ 2.36 µM) | 0.02 (≈ 0.0296 µM) | 1.6 (≈ 2.36 µM) | 0.05 (≈ 0.0739 µM) | 0.8 (≈ 1.18 µM) | < 0.01 | 0.8 (≈ 1.18 µM) | 0.02 (≈ 0.0296 µM) | 1.6 (≈ 2.36 µM) | < 0.01 | 0.03 (≈ 0.0443 µM) | < 0.01 | 0.02 (≈ 0.0296 µM) | 0.05 (≈ 0.0739 µM)
